Data set [1] concerns the target T1, human norepinephrine transporter (hNET) (Homo sapiens, UniProt P23975).
T1 construct: expressed in transfected cells; host or cells: MDCK cells
As to the kind of experiment: Binding affinity to human norepinephrine transporter (hNET), [3H]Nisoxetine displacement. To be noted: membranes from MDCK cells expressing hNET, [3H]Nisoxetine 2 nM, read-out: NET binding, Ki. On the procedure: The binding affinities of certain compounds disclosed herein to the hNET were measured using competitive radioligand displacement assays in membranes prepared from MDCK cells that express the human norepinephrine transporter. Competition binding experiments were conducted by incubating hNET membranes with [^3H] Nisoxetine (2 nM), in the presence of increasing concentrations of test compounds. Incubations were carried out at 4° C. for 60 minutes in buffer containing 50 mM Tris HCl, 120 mM NaCl and 5 mM KCl (pH 7.4). The binding reaction was terminated by rapid filtration, membranes were washed and membrane-bound radioactivity was measured using a scintillation counter. Non-specific binding was measured in the presence of excess (10 μM) clomipramine as the unlabelled ligand and this value was subtracted from the total binding to yield the specific binding at each test compound concentration.
IC50 values were obtained from non-linear regression analysis of concentration-versus specific binding plots. Ki values were calculated from the IC50 values using the Cheng Prusoff correction and experimentally determined […] values for the radioligand under these assay conditions.

In data set [2] the test system is sodium channels (sodium current INa) in rat dorsal root ganglion (DRG) cells. Put plainly: Sodium channel assay, whole-cell patch clamp of sodium current in isolated DRG cells. The format is cell-based. The source says: The effect of compounds disclosed herein on sodium channels may be evaluated in vitro to determine their blocking properties using the whole-cell patch clamp method in isolated cardiac (human atrial myocytes) and neuronal (rat dorsal root ganglion) cells. The example below refers to a sodium channel assay using neuronal cells.
Electrophysiologic patch clamp recordings of the sodium current in isolated rat dorsal root ganglion (DRG) cells were used to measure the sodium channel blocking properties of certain compounds disclosed herein. DRG cells were isolated according to the method of Blair and Bean (J Neurosci, 22: pp. 10277-10290, 2002) and plated on treated glass coverslips. For measuring the sodium current, cells were perfused with an external solution that consists of (in mmol/L): 115 TMA chloride, 10 NaCl, 5 CsCl, 1.8 CaCl2, 1.2 MgCl2, 10 HEPES, 11 dextrose, pH adjusted to 7.4 with TMA-OH. The chemical composition of the internal solution was (in mmol/L): 115 CsF, 20 CsCl, 10 NaF, 10 HEPES, 5 EGTA; pH adjusted to 7.2 with CsOH. Currents were measured using the whole-cell variant of the patch clamp method (Crumb & Clarkson, Biophysical Journal, 57(3): 589, 1990). An Axopatch 1-B amplifier (Axon Instruments, Foster City, Calif.) was used for whole-cell voltage clamping. Creation of voltage clamp pulses and data acquisition were controlled by a PC running pClamp software (version 9.2, Axon Instruments). INa was elicited by a 40 ms pulse to −20 mV from a holding potential of −65 mV. Pacing rates of 0.1 and 3 Hz were examined. […]. Four concentrations of each test compound were added to the cell in a cumulative manner starting with the lowest test concentration. Each cell served as its own control and data are presented as % reduction of current amplitude achieved in the presence of drug. A nonlinear curve fitting routine was utilized to fit a three-parameter Hill equation to the results using MicroCal Origin, version 6.0 software. The equation was: […]
(In general: In patch-clamp work, channel activity is measured electrically.)

Data set [3] concerns the target T2, cloned human hERG channel (Homo sapiens, UniProt Q12809).
T2 construct: expressed in transfected cells; host or cells: HEK cells
As to the kind of experiment: In vitro effect on hERG channels, whole-cell patch clamp in HEK cells. The settings on record: 37 °C, read-out: IhERG, 0.1 HZ, IC50. The format is cell-based. On the procedure: Electrophysiological measurements of hERG current were made in vitro to assess the hERG block produced by certain compounds disclosed herein. hERG currents were measured in HEK cells expressing the cloned human hERG channel using the whole-cell variant of the patch clamp method. Experiments were performed at 37±1° C. An Axopatch 1-B amplifier (Axon Instruments, Foster City, Calif.) was used for whole-cell voltage clamping. Creation of voltage clamp pulses and data acquisition was controlled by a PC running pClamp software (version 9.2, Axon Instruments). After rupture of the cell membrane (entering whole-cell mode), current kinetics and amplitudes were allowed to stabilize for 3-5 minutes as the cell was dialyzed with internal solution and paced at 0.1 Hz. Cells were depolarized to +10 mV for 500 ms from a holding potential of −75 mV and peak hERG current was measured as the maximum outward deflection of the tail current elicited upon return to −40 mV (pacing rate=0.1 Hz). Four concentrations of each test compound were added to the cell in a cumulative manner starting with the lowest test concentration. Each cell served as its own control and data are presented as % reduction of current amplitude achieved in the presence of drug.
A nonlinear curve fitting routine was utilized to fit a three-parameter Hill equation to the results using MicroCal Origin, version 6.0 software. The equation was: […]
(Block of hERG is tested as a sign of cardiac risk.)

Structures can show the parent of a compound that is named as a salt. Where two headings read alike, the source gives them in different places.

Among the data in patent US9090535B2, “Hydroxylated tricyclic compounds” (Nektar Therapeutics, priority 2010, dated 2015) are Ki and IC50 values, retold here.

T2 sequence (Q12809 whole entry): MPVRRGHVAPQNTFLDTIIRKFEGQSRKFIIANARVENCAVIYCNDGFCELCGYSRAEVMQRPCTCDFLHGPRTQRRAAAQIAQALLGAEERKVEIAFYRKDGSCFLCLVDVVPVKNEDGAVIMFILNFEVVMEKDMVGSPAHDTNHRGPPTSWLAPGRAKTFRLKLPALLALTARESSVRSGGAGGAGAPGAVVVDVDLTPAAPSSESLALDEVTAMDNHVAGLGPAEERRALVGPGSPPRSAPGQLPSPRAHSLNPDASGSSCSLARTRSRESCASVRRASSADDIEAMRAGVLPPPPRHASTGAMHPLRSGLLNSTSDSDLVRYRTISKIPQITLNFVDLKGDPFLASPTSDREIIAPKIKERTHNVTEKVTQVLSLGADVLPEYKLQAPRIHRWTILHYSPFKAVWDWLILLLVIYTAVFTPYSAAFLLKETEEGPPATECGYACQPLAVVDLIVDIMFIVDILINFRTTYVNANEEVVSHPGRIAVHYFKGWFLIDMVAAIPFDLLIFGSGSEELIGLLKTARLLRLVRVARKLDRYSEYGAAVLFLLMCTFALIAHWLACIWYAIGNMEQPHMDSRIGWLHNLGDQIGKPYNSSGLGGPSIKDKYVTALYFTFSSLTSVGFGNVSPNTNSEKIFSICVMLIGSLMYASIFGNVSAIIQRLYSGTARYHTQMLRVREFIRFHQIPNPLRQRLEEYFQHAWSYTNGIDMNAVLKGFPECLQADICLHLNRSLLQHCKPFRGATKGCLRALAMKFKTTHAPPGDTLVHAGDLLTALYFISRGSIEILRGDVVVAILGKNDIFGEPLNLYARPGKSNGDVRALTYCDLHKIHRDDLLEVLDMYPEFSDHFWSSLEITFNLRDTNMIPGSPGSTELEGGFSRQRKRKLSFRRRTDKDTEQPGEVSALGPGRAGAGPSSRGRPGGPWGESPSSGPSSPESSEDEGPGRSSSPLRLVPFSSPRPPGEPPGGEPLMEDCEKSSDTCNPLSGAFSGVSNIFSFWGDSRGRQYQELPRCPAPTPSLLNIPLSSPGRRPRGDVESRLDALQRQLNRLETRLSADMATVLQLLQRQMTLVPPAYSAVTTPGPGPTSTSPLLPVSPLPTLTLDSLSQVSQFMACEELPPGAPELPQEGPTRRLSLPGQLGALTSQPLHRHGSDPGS
T1 sequence (P23975 whole entry): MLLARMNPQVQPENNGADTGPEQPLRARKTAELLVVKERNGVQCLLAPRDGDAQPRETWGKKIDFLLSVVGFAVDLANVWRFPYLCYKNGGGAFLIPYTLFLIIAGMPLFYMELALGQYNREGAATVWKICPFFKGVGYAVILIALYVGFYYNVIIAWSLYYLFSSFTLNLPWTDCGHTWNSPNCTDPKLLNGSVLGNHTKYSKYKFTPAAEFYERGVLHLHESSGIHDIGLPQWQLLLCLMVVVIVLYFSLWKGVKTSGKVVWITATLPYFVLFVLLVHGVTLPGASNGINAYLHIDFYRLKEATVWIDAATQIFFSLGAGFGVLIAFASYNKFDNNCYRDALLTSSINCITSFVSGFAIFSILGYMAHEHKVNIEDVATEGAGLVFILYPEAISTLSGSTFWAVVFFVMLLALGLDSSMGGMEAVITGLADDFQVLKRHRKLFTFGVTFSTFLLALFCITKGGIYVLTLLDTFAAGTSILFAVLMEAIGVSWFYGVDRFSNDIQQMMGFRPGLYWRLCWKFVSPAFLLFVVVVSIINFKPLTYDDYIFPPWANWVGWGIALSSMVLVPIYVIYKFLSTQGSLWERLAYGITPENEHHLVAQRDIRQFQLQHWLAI

The Ki is the equilibrium dissociation constant of an inhibitor or competing ligand from its target. The term IC50 denotes the concentration that inhibits the measured activity by half. Regarding `COCCOCCOCCOCCOCCOCCOCCOCCO[C@@H]1Cc2ccccc2/C(=C\CCN(C)C)c2ccccc21` [(R)-5-(3-dimethylamino-propylidene)-10-OmPEG8-10,11-dihydro-5H-dibenzo[a,d]cyclohept-E-ene trifluoroacetate salt], the Ki in data set [1] (Table 2) came out at 13.5 µM. The half-inhibitory concentration (IC50) came to 21.2 µM in data set [2] (Table 2, pacing rate 3 Hz) and 55.9 µM in data set [3] (Table 2, pacing rate 0.1 Hz).

Take `CN(C)CC/C=C1\c2ccccc2C[C@H](O)c2ccccc21` [(S)-5-(3-Dimethylamino-propylidene)-10,11-dihydro-5H-dibenzo[a,d]cyclohept-E-en-10-ol, reference compound]: the Ki in data set [1] (Table 2) was 0.34 µM. Moreover, the IC50 in data set [2] (Table 2, pacing rate 3 Hz) is 16.6 µM; in data set [3] (Table 2, pacing rate 0.1 Hz), 23.2 µM.

Regarding `COCCOCCOCCOCCO[C@H]1Cc2ccccc2/C(=C\CCN(C)C)c2ccccc21` [(S)-5-(3-dimethylamino-propylidene)-10-OmPEG4-10,11-dihydro-5H-dibenzo[a,d]cyclohept-E-ene trifluoroacetate salt], the Ki in data set [1] (Table 2) stood at 12.6 µM. The IC50 in data set [2] (Table 2, pacing rate 3 Hz) was 39.4 µM; in data set [3] (Table 2, pacing rate 0.1 Hz) it was 24.8 µM.

On to `COCCOCCOCCOCCOCCOCCO[C@H]1Cc2ccccc2/C(=C\CCN(C)C)c2ccccc21` [(S)-5-(3-dimethylamino-propylidene)-10-OmPEG6-10,11-dihydro-5H-dibenzo[a,d]cyclohept-E-ene trifluoroacetate salt], for which the Ki in data set [1] (Table 2) turned out to be 14.2 µM. Besides, the IC50 is 8.5 µM in data set [2] (Table 2, pacing rate 3 Hz) and 36 µM in data set [3] (Table 2, pacing rate 0.1 Hz).

Regarding `COCCOCCOCCOCCOCCOCCOCCOCCO[C@H]1Cc2ccccc2/C(=C\CCN(C)C)c2ccccc21` [(S)-5-(3-dimethylamino-propylidene)-10-OmPEG8-10,11-dihydro-5H-dibenzo[a,d]cyclohept-E-ene trifluoroacetate salt], the Ki in data set [1] (Table 2) was 14 µM. The IC50 in data set [2] (Table 2, pacing rate 3 Hz) is 71.6 µM; in data set [3] (Table 2, pacing rate 0.1 Hz) it was > 100 µM.

Consider `CN(C)CC/C=C1/c2ccccc2CCc2cc(O)ccc21` [(Z)-5-(3-(dimethylamino)propylidene)-10,11-dihydro-5H-dibenzo[a,d][7]annulen-2-ol, reference compound], for which, in data set [1] (Table 1), the Ki was 0.5 µM. Also, the IC50 came to 14.9 µM in data set [2] (Table 1, pacing rate 3 Hz) and 1.6 µM in data set [3] (Table 1, pacing rate 0.1 Hz).
